In brackets after ≈: the same amount, converted by molar mass.
Key:
HeLa S3 cells = assay: Double thymidine block and release, FACS and morphology; format: cell-based, human; settings: for morphologic appearance: 15 hours release from double thymidine block; for cell cycle progression by FACS: cells synchronized at the G1/S transition and released into compound
Method: FIG. 9. […] Synchronized cells (time zero) were released into media containing granaticin A for the indicated times and standard FACS analysis performed looking at DNA content.
FIG. 11. Cell cycle arrest in Hela S3 cells: Morphologic appearance of control (DMSO), granaticin A, and granaticin B treated HeLa S3 cells following 15 hours release from double thymidine block. […] The corresponding FACS profiles are shown.

AMMoL = assay: Cytotoxicity assay (Alamar blue), patient leukemia sample; format: cell-based; settings: Homo sapiens
Method: (§1) FIGS. 16A-16B. Granaticin A and Granaticin B inhibit multiple tumor types: The indicated cell lines and primary patient samples were tested against the compounds listed in standard cytotoxicity assays (12 point dose response using Alamar blue reduction as an indicator of cell viability). Assays were done in triplicate and IC50 determinations were run in 12-point serial dilutions from […] to 5 nM. […] These include ras and EGFR gatekeeper mutation containing cell lines in addition to p53 mutant cell lines and other known chemotherapy resistant cell lines. Specifically, this included multi-drug resistance phenotype (MDR-overexpressing) cell lines from multiple hematologic and solid tumor cell lines. Table 1 highlights a series of primary patient leukemia samples-both acute and chronic and treatment naïve and refractory tested against granaticins A and B and Derivatives 1 and 2 (see Examples).
(§2) Table 1 highlights a series of primary patient leukemia samples-both acute and chronic and treatment naïve and refractory and the effect of granaticin A, granaticin B, derivative 1, and derivative 2 to inhibit cellular proliferation. […] The two starred samples represent serial samples taken from the same patients after they received 2-3 cycles of additional high dose salvage chemotherapy and indicate that although refractory to salvage chemotherapy, the Cdc7 pathway remains a potentially efficacious target as the sensitivity to these compounds remains unchanged. Importantly, each patient sample was resistant to the prior therapy received using this assay.

[1] = system: AML, primary refractory 1; assay: as above; format: cell-based; settings: Homo sapiens
Method: as §1, §2

[2] = system: Biphenotypic acute leukemia 1*; assay: as above; format: cell-based; settings: Homo sapiens, second sample from the same patient following high-dose chemotherapy
Method: as §1, §2

[3] = system: CLL, untreated, chromosome 17 p del.; assay: as above; format: cell-based; settings: Homo sapiens
Method: as §1, §2

CML, untreated = assay: as above; format: cell-based; settings: Homo sapiens
Method: as §1, §2

[4] = system: AML, primary refractory 1*; assay: as above; format: cell-based; settings: Homo sapiens, second sample from the same patient following high-dose chemotherapy
Method: as §1, §2

AML, relapsed s/p HSCT = assay: as above; format: cell-based; settings: Homo sapiens
Method: as §1, §2

AML, primary refractory = assay: as above; format: cell-based; settings: Homo sapiens
Method: as §1, §2

AML, relapsed = assay: as above; format: cell-based; settings: Homo sapiens
Method: as §1, §2

ALL, Ph+ = assay: as above; format: cell-based; settings: Homo sapiens
Method: as §1, §2

AML, de novo = assay: as above; format: cell-based; settings: Homo sapiens
Method: as §1, §2

[5] = system: Biphenotypic acute leukemia 1; assay: as above; format: cell-based; settings: Homo sapiens
Method: as §1, §2

MIHA = assay: Cytotoxicity assay (Alamar blue); format: cell-based; settings: Homo sapiens, Patient sample of relapsed/refractory acute biphenotypic leukemia (refractory to allogeneic bone marrow transplant)
Method: as §1

132 = assay: Cytotoxicity assay (Alamar blue); format: cell-based; settings: Homo sapiens, Patient sample of Chronic Lymphocytic Leukemia
Method: as §1

NCEB1 = assay: Cytotoxicity assay (Alamar blue); format: cell-based; settings: Human Mantle Cell Lymphoma
Method: as §1

H820 = assay: Cytotoxicity assay (Alamar blue); format: cell-based; settings: NCI-H820, human lung adenocarcinoma, Del E746-E749 and T790M EGFR mutations
Method: as §1

MDA-MB -231 = assay: Cytotoxicity assay (Alamar blue); format: cell-based; settings: human metastatic breast adenocarcinoma, estrogen, progesterone, and HER2/NEU receptor negative
Method: as §1

H2122 = assay: Cytotoxicity assay (Alamar blue); format: cell-based; settings: NCI-H2122, human lung adenocarcinoma, G12C KRAS mutation, Q16L and C176F P53 mutations
Method: as §1

STGL = assay: Cytotoxicity assay (Alamar blue); format: cell-based; settings: Homo sapiens, Patient sample of refractory AML with multiple chromosomal abnormalities (refractory to allogeneic BMT)
Method: as §1

JOQU = assay: Cytotoxicity assay (Alamar blue); format: cell-based; settings: Homo sapiens, Patient sample of relapsed/refractory AML with trisomy of chromosome #8 and Flt-3 ITD
Method: as §1

HeLa cells = assay: S phase checkpoint western blot analysis; format: cell-based, human
Method: FIG. 15. […] HeLa cells were incubated in the presence of granaticin A or carrier control (DMSO) for the indicated times and whole cell extracts were subjected to SDS-PAGE and western blot analysis. Asyn=asynchronously growing HeLa cells. HU=HeLa cells exposed to hydroxyurea for the indicated time. HU was used as a control for DNA damaging agent that is known to […] the DNA damage checkpoint response. Again, we observed that Mcm2 mobility is shifted in the cells treated with granaticin A. MCM2 mobility is not affected by HU. Activation of the DNA damage/replication checkpoint correlates with ATM/ATR dependent phosphorylation of Chk1 at Ser345.

[6] = Standard solubility studies; format: physicochemical
Method: Standard solubility studies were conducted with granaticin B. In aqueous solution, 4.0 mg/ml of granaticin B is soluble. In alcohol, >188 mg/ml of granaticin B is soluble. In methanol, >252 mg/ml of granaticin B is soluble.

[7] = system: primary patient leukemia samples; assay: Inhibition of cellular proliferation, all primary patient leukemia samples; format: cell-based, human
Method: as §1
Table 1 highlights a series of primary patient leukemia samples-both acute and chronic and treatment naïve and refractory and the effect of granaticin A, granaticin B, derivative 1, and derivative 2 to inhibit cellular proliferation. […]

[8] = relapsed (first of two such lines, r11)
[9] = relapsed (second of two such lines, r12)

Structure (SMILES) | morphologic appearance (HeLa S3 cells) | cell cycle progression by FACS (HeLa S3 cells) | IC50 (AMMoL) | IC50 [1] | IC50 [2] | IC50 [3] | IC50 (CML, untreated) | IC50 [4] | IC50 (AML, relapsed s/p HSCT) | IC50 (AML, primary refractory) | IC50 (AML, relapsed; [8]) | IC50 (AML, relapsed; [9]) | IC50 (ALL, Ph+) | IC50 (AML, de novo) | IC50 [5] | IC50 (MIHA) | IC50 132 | IC50 (NCEB1) | IC50 (H820) | IC50 (MDA-MB -231) | other results
CC1OC2CC(O)C1(O)c1c(O)c3c(c(O)c12)C(=O)C1=C(C3=O)[C@H](C)O[C@H]2CC(=O)O[C@@H]12 (stereo partly drawn) [Granaticin A, granaticin A] | arrested with flattened morphology and peri-nuclear vacuolization | S phase progression is also blocked | 0.99 µM | 0.75 µM | 0.54 µM | 0.46 µM | 0.26 µM | 0.63 µM | 1.88 µM | 0.77 µM | 1.2 µM | 0.21 µM | 0.56 µM | 0.72 µM | 0.3 µM | 0.3 µM | 0.13 µM | 0.33 µM | 0.09 µM | 0.47 µM | IC50 (H2122): 1.19 µM; IC50 (STGL): 1.88 µM; IC50 (JOQU): 0.77 µM; double strand DNA breaks (HeLa cells; HeLa cells): increased double strand DNA breaks; Mcm2 mobility (HeLa cells; SDS-PAGE and western blot): shifted; S phase checkpoint activation (HeLa cells; western blot, Chk1 Ser345): does not activate the S phase checkpoint
CC1OC2CC(O[C@H]3CC[C@H](O)[C@H](C)O3)C1(O)c1c(O)c3c(c(O)c12)C(=O)C1=C(C3=O)[C@H](C)O[C@H]2CC(=O)O[C@@H]12 (stereo partly drawn) [Granaticin B, granaticin B] | nuclear blebbing and cell death | Induces Cell Cycle Arrest | 0.49 µM | 0.11 µM | 0.1 µM | 0.31 µM | 0.08 µM | 0.1 µM | 0.62 µM | 0.14 µM | 0.1 µM | 0.05 µM | 0.19 µM | 0.18 µM | 0.04 µM | 0.04 µM | 0.01 µM | 0.26 µM | 0.05 µM | 0.29 µM | IC50 (H2122): 0.21 µM; IC50 (STGL): 0.62 µM; IC50 (JOQU): 0.14 µM; solubility ([6]; organic solvent or mixture, in alcohol): > 188 mg/mL; solubility ([6]; organic solvent or mixture, in methanol): > 252 mg/mL; solubility ([6]; water, in aqueous solution): 4 mg/mL (≈ 7.16 mM); activity relative to granaticin A ([7]; against all the samples tested): approximately one log; range of inhibition of cellular proliferation ([7]; all the samples tested): low nanomolar range

Reference: US20210283099A1, “CDC7 KINASE INHIBITORS AND USES THEREOF” (SLOAN-KETTERING INSTITUTE FOR CANCER RESEARCH, priority 2010, published 2021)
